Reference: PMC10404678, “A recombinant technique for mapping functional sites of heterotrimeric collagen helices: Collagen IV CB3 fragment as a prototype for integrin binding” (The Journal of Biological Chemistry, 2023)

Assays:
Experiment in all cases: fluorescence polarization competition with fluorescent BOP probe
Format in all cases: binding
[1] = molecular target: T1, integrin α11β1 ectodomain (Homo sapiens, UniProt P05556+Q9UKX5)
T1 construct: gene ITGA11; ectodomain heterodimer; continuous transcript alpha-GGGS-P2A-beta; alpha with ACID coil and C-terminal StrepII tag, beta with BASE coil and His tag; Expi293 cells; beta1 borders printed for the separate vector

integrin α1β1 ectodomain = molecular target: T2, integrin α1β1 ectodomain (Homo sapiens, UniProt P05556+P56199)
T2 construct: gene ITGA1; ectodomain heterodimer; alpha with ACID coil and C-terminal StrepII tag, beta with BASE coil and His tag; Expi293 cells, separate pcDNA3.4 vectors

integrin α3β1 = molecular target: T3, integrin α3β1 (Homo sapiens, UniProt P05556+P26006)
T3 construct: gene ITGA3; purchased recombinant heterodimer (R&D Systems), extracellular domains

[2] = molecular target: T4, integrin α10β1 ectodomain (Homo sapiens, UniProt O75578+P05556)
T4 construct: gene ITGA10; ectodomain heterodimer; continuous transcript alpha-GGGS-P2A-beta; alpha with ACID coil and C-terminal StrepII tag, beta with BASE coil and His tag; Expi293 cells; beta1 borders printed for the separate vector

integrin α2β1 ectodomain = molecular target: T5, integrin α2β1 ectodomain (Homo sapiens, UniProt P05556+P17301)
T5 construct: gene ITGA2; ectodomain heterodimer; alpha with ACID coil and C-terminal StrepII tag, beta with BASE coil and His tag; Expi293 cells, separate pcDNA3.4 vectors
T5 sequence (P17301 30-1129): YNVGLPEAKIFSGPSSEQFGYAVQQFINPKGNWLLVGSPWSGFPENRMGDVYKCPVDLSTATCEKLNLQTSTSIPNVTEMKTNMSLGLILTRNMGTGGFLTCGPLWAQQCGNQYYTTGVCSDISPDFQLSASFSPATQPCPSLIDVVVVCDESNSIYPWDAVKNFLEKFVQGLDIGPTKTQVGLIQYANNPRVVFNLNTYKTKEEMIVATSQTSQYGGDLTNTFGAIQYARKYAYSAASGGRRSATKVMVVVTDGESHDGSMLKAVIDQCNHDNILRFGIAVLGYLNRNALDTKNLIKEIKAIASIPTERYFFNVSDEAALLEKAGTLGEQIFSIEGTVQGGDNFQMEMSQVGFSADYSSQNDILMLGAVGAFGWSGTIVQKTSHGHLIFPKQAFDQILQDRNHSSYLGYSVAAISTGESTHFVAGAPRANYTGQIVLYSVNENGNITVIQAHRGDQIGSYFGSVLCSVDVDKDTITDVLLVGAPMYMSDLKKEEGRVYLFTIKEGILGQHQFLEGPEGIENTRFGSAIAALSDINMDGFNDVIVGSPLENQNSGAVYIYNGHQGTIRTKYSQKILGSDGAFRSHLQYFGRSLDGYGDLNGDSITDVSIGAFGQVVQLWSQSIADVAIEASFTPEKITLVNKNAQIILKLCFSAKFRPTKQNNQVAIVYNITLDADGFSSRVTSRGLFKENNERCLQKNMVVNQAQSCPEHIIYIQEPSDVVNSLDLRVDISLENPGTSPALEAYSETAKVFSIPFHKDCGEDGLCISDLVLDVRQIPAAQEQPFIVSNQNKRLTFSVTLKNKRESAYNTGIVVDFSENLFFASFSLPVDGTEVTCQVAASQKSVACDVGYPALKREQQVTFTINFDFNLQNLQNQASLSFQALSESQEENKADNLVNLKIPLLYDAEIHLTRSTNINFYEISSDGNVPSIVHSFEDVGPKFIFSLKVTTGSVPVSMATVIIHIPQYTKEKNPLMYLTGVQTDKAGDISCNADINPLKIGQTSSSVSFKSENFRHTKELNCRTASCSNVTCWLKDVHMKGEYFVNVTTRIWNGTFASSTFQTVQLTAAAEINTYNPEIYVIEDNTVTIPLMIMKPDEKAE
T5 sequence (P05556 21-728): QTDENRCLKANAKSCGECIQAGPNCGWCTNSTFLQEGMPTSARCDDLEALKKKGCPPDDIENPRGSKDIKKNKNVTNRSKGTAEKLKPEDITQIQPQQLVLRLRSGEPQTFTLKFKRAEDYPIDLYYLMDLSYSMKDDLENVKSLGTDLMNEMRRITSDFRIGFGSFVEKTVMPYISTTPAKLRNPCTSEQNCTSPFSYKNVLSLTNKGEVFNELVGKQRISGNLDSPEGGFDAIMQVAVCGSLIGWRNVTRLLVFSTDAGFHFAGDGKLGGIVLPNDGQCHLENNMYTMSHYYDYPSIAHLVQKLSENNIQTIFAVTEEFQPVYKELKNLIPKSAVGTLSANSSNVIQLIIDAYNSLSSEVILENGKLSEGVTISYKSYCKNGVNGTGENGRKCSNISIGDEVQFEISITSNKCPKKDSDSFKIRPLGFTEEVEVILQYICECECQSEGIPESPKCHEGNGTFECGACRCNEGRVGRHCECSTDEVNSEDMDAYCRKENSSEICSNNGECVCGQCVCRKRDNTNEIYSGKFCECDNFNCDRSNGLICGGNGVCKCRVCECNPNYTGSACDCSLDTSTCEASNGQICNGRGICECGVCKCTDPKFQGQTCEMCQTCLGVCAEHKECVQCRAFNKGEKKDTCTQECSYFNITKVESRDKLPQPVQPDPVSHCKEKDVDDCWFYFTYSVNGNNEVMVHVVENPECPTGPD

T3 sequence (P26006 33-872 limits assumed): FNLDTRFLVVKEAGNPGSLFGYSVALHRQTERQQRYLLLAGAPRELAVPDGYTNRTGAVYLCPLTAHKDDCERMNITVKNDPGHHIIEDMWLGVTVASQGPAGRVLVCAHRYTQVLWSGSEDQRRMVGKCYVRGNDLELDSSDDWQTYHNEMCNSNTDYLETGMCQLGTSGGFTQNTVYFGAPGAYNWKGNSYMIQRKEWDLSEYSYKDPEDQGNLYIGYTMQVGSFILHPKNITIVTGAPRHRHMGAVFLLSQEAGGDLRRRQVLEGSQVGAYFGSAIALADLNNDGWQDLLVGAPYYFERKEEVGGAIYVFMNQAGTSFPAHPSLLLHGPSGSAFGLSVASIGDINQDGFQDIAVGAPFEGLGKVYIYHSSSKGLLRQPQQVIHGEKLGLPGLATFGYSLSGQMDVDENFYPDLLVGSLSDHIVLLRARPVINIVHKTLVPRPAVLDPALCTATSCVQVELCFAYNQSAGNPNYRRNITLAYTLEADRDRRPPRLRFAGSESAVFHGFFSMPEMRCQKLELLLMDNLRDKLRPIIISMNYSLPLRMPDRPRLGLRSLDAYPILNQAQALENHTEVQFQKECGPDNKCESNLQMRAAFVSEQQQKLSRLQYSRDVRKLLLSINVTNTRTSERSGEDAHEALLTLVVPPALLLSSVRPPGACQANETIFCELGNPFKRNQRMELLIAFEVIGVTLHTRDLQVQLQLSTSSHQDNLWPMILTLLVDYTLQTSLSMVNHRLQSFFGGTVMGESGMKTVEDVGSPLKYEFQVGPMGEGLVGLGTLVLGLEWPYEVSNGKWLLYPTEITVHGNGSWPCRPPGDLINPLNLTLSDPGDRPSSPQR
T3 sequence (P26006 876-991 limits assumed): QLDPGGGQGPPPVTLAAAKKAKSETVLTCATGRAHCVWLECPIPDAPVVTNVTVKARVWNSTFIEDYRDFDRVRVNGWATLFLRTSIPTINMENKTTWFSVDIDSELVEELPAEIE
T3 sequence (P05556 21-728 limits assumed): as the sequence (P05556 21-728) above
T1 sequence (Q9UKX5 23-1139): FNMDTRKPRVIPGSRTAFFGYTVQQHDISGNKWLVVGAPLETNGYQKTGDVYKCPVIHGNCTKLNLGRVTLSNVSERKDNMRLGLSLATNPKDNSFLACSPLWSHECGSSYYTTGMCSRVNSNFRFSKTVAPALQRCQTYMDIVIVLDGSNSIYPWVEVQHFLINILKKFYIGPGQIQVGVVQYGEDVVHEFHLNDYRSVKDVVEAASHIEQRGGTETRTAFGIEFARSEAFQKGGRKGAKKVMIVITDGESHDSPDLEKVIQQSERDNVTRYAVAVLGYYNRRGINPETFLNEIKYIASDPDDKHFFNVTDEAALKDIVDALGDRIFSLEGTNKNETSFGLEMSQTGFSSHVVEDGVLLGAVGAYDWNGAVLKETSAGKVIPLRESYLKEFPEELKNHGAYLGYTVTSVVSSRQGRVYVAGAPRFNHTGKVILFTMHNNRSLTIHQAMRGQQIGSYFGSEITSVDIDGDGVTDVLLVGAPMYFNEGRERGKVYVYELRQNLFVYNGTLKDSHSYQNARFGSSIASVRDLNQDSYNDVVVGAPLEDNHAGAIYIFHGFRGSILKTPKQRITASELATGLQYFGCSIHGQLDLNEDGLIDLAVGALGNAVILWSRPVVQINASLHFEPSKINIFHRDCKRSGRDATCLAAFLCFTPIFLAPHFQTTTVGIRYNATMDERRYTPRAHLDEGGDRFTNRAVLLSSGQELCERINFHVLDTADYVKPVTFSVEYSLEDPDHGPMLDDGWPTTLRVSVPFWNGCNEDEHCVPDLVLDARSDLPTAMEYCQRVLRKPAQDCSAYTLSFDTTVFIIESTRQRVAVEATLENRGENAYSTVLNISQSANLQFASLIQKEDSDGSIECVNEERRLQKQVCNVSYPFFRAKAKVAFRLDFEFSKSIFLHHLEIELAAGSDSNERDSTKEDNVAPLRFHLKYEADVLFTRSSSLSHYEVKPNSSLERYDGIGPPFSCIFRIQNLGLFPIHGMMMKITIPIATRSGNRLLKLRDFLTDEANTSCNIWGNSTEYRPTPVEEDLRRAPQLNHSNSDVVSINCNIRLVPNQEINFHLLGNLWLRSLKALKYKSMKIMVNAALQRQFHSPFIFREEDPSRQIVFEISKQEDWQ
T1 sequence (P05556 21-728): as the sequence (P05556 21-728) above

**Q.** Which IC50 [1] does the source give for `O=C(O)[C@H](Cc1ccc(OC(=O)N2CCCC2)cc1)NC(=O)[C@@H]1CCCN1S(=O)(=O)c1ccccc1` [BOP, N-(Benzenesulfonyl)-L-prolyl-L-O-(1-pyrrolidinylcarbonyl)tyrosine] here?
**A.** The IC50 was 118 nM.

**Q.** And the IC50 (integrin α1β1 ectodomain)?
**A.** The IC50 was 80.7 nM.

**Q.** And the IC50 (integrin α3β1)?
**A.** Its IC50 is 31.2 nM.

**Q.** What about the IC50 [2] of the same compound?
**A.** Its IC50 is 25.3 nM.

**Q.** What about the IC50 (integrin α2β1 ectodomain) of the same compound?
**A.** The IC50 was 16.2 nM.
